Experimental data from ChEMBL document CHEMBL1201862, “PubChem BioAssay data set” (2004).
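Protocol summary: plate cells (96-well), add compound at 5 concentrations, incubate 48 h, interpolate endpoints linearly. GI50: concentration for 50% inhibition of growth.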 The source made the active and inactive calls. No stated cut-off is given here; in the data, active = GI50 up to about 1.1 µM and inactive = higher.

Key:
Assay in all cases: growth of human tumour cells (NCI), 48 h
K562 = test system: K562
UO-31 = test system: UO-31
LOX IMVI = test system: LOX IMVI
786-0 = test system: 786-0
Malme-3M = test system: Malme-3M
PC-3 = test system: PC-3
MOLT-4 = test system: MOLT-4
IGROV-1 = test system: IGROV-1
SNB-19 = test system: SNB-19
OVCAR-4 = test system: OVCAR-4
SK-MEL-28 = test system: SK-MEL-28
NCI-H460 = test system: NCI-H460
UACC-257 = test system: UACC-257
CAKI-1 = test system: CAKI-1
HCT-15 = test system: HCT-15
U-251 = test system: U-251
ACHN = test system: ACHN
SK-OV-3 = test system: SK-OV-3
NCI/ADR-RES = test system: NCI/ADR-RES
RXF 393 = test system: RXF 393

With `N#C/C(N)=C(C#N)/N=C/Nc1ccc(N)cc1` the GI50 (K562) was > 100 µM (inactive), the GI50 (UO-31) was > 100 µM (inactive) and the GI50 (LOX IMVI) was > 100 µM (inactive). For the same compound, the GI50 (786-0) was > 100 µM (inactive), the GI50 (Malme-3M) was > 100 µM (inactive) and the GI50 (PC-3) was > 100 µM (inactive). For the same compound, the GI50 (MOLT-4) was > 100 µM (inactive), the GI50 (IGROV-1) was > 100 µM (inactive) and the GI50 (SNB-19) was > 100 µM (inactive). The GI50 (OVCAR-4) was > 100 µM (inactive), the GI50 (SK-MEL-28) was > 100 µM (inactive) and the GI50 (NCI-H460) was > 100 µM (inactive). The GI50 (UACC-257) was > 100 µM (inactive), the GI50 (CAKI-1) was > 100 µM (inactive) and the GI50 (HCT-15) was greater than 100 µM. For the same compound, the GI50 (U-251) was > 100 µM (inactive), the GI50 (ACHN) was > 100 µM (inactive) and the GI50 (SK-OV-3) was > 100 µM (inactive). For the same compound, the GI50 (NCI/ADR-RES) was > 100 µM (inactive).
With `CC1(C)C(=O)C(C)(C)C12SSC1(S2)C(C)(C)C(=O)C1(C)C` the GI50 (K562) was > 100 µM (inactive), the GI50 (UO-31) was > 100 µM (inactive) and the GI50 (LOX IMVI) was > 100 µM (inactive). The GI50 (786-0) was > 100 µM (inactive), the GI50 (Malme-3M) was 48.2 µM (inactive) and the GI50 (PC-3) was 84.5 µM (inactive). The GI50 (MOLT-4) was 71.4 µM (inactive), the GI50 (IGROV-1) was > 100 µM (inactive) and the GI50 (SNB-19) was > 100 µM (inactive). The GI50 (OVCAR-4) was > 100 µM (inactive), the GI50 (SK-MEL-28) was > 100 µM (inactive) and the GI50 (NCI-H460) was > 100 µM (inactive). The GI50 (UACC-257) was > 100 µM (inactive), the GI50 (CAKI-1) was > 100 µM (inactive) and the GI50 (HCT-15) was greater than 100 µM. The GI50 (U-251) was > 100 µM (inactive), the GI50 (ACHN) was > 100 µM (inactive) and the GI50 (SK-OV-3) was > 100 µM (inactive). For the same compound, the GI50 (NCI/ADR-RES) was 77.1 µM (inactive).
`CC(C)N/C(=N\C#N)NS(=O)(=O)c1cnccc1Nc1ccc(Cl)cc1` was tested, and the GI50 (K562) was > 100 µM (inactive), the GI50 (UO-31) was > 100 µM (inactive) and the GI50 (786-0) was > 100 µM (inactive). For the same compound, the GI50 (Malme-3M) was > 100 µM (inactive), the GI50 (PC-3) was > 100 µM (inactive) and the GI50 (MOLT-4) was > 100 µM (inactive). The GI50 (IGROV-1) was > 100 µM (inactive), the GI50 (SNB-19) was > 100 µM (inactive) and the GI50 (RXF 393) was > 100 µM (inactive). For the same compound, the GI50 (OVCAR-4) was > 100 µM (inactive), the GI50 (SK-MEL-28) was > 100 µM (inactive) and the GI50 (UACC-257) was > 100 µM (inactive). The GI50 (CAKI-1) was > 100 µM (inactive), the GI50 (HCT-15) was greater than 100 µM and the GI50 (U-251) was > 100 µM (inactive). For the same compound, the GI50 (ACHN) was > 100 µM (inactive), the GI50 (SK-OV-3) was > 100 µM (inactive) and the GI50 (NCI/ADR-RES) was > 100 µM (inactive).
For `N#Cc1c(N2CCN(c3ccc([N+](=O)[O-])cc3)CC2)[n+]([O-])c2ccc(-c3ccc([N+](=O)[O-])cc3)cc2[n+]1[O-]`, the GI50 (K562) was 5.26 µM (inactive), the GI50 (UO-31) was 8.59 µM (inactive) and the GI50 (LOX IMVI) was 0.9 µM (active). The GI50 (786-0) was > 47.8 µM (inactive), the GI50 (Malme-3M) was > 42 µM (inactive) and the GI50 (PC-3) was 2.55 µM (inactive). The GI50 (IGROV-1) was 1.69 µM (inactive), the GI50 (SNB-19) was 9.18 µM (inactive) and the GI50 (OVCAR-4) was > 31.2 µM (inactive). The GI50 (SK-MEL-28) was > 89.3 µM (inactive), the GI50 (NCI-H460) was 2.5 µM (inactive) and the GI50 (UACC-257) was 16.4 µM (inactive). The GI50 (CAKI-1) was 5.35 µM (inactive), the GI50 (HCT-15) was greater than 85.5 µM and the GI50 (U-251) was 1.25 µM (inactive). The GI50 (ACHN) was > 49 µM (inactive), the GI50 (SK-OV-3) was > 100 µM (inactive) and the GI50 (NCI/ADR-RES) was 9.08 µM (inactive).
In the case of `COc1ccc(P2(=S)OC(C)(C)C(C)(C)O2)cc1`, the GI50 (K562) is reported as > 100 µM (inactive), the GI50 (UO-31) is reported as 17.5 µM (inactive) and the GI50 (LOX IMVI) is reported as > 100 µM (inactive). For the same compound, the GI50 (786-0) was > 100 µM (inactive), the GI50 (Malme-3M) was > 100 µM (inactive) and the GI50 (PC-3) was > 100 µM (inactive). For the same compound, the GI50 (MOLT-4) was > 100 µM (inactive), the GI50 (IGROV-1) was > 100 µM (inactive) and the GI50 (SNB-19) was > 100 µM (inactive). For the same compound, the GI50 (OVCAR-4) was > 100 µM (inactive), the GI50 (SK-MEL-28) was > 100 µM (inactive) and the GI50 (NCI-H460) was > 100 µM (inactive). For the same compound, the GI50 (UACC-257) was > 100 µM (inactive), the GI50 (CAKI-1) was 50.9 µM (inactive) and the GI50 (HCT-15) was greater than 100 µM. For the same compound, the GI50 (U-251) was > 100 µM (inactive), the GI50 (ACHN) was > 100 µM (inactive) and the GI50 (NCI/ADR-RES) was > 100 µM (inactive).
For `C/C(=N\NC(=S)Nc1ccccc1)c1nc2cccnc2[nH]1`, the GI50 (K562) was 3.35 µM (inactive), the GI50 (UO-31) was 1.38 µM (inactive) and the GI50 (LOX IMVI) was 2.31 µM (inactive). For the same compound, the GI50 (786-0) was 2.54 µM (inactive), the GI50 (Malme-3M) was 2.18 µM (inactive) and the GI50 (PC-3) was 3.4 µM (inactive). For the same compound, the GI50 (MOLT-4) was 0.706 µM (active), the GI50 (IGROV-1) was 3.48 µM (inactive) and the GI50 (SNB-19) was 5.96 µM (inactive). The GI50 (OVCAR-4) was 0.927 µM (active), the GI50 (SK-MEL-28) was 0.706 µM (active) and the GI50 (NCI-H460) was 1.54 µM (inactive). For the same compound, the GI50 (UACC-257) was 2.18 µM (inactive), the GI50 (CAKI-1) was 4.63 µM (inactive) and the GI50 (HCT-15) was 2.66 µM. The GI50 (U-251) was 2.49 µM (inactive), the GI50 (ACHN) was 1.44 µM (inactive) and the GI50 (SK-OV-3) was 5.36 µM (inactive). The GI50 (NCI/ADR-RES) was 3.3 µM (inactive).
`CC(C)(C)OC(=O)NCCNC(=O)OCc1ccccc1` was tested, and the GI50 (K562) was 85.9 µM (inactive), the GI50 (UO-31) was > 100 µM (inactive) and the GI50 (786-0) was > 100 µM (inactive). For the same compound, the GI50 (Malme-3M) was > 100 µM (inactive), the GI50 (PC-3) was > 100 µM (inactive) and the GI50 (MOLT-4) was > 100 µM (inactive). The GI50 (IGROV-1) was > 100 µM (inactive), the GI50 (SNB-19) was > 100 µM (inactive) and the GI50 (RXF 393) was > 100 µM (inactive). The GI50 (SK-MEL-28) was > 100 µM (inactive), the GI50 (NCI-H460) was > 100 µM (inactive) and the GI50 (UACC-257) was > 100 µM (inactive). The GI50 (CAKI-1) was > 100 µM (inactive), the GI50 (HCT-15) was greater than 100 µM and the GI50 (U-251) was > 100 µM (inactive). For the same compound, the GI50 (ACHN) was > 100 µM (inactive), the GI50 (SK-OV-3) was > 100 µM (inactive) and the GI50 (NCI/ADR-RES) was > 100 µM (inactive).
`Cc1ccc(S(=O)(=O)N(CC(O)c2ccccc2)c2ccccc2F)cc1` (configuration not stated) was tested, and the GI50 (K562) was 17 µM (inactive), the GI50 (UO-31) was 16.2 µM (inactive) and the GI50 (LOX IMVI) was 16.1 µM (inactive). The GI50 (786-0) was 17.6 µM (inactive), the GI50 (Malme-3M) was 16.4 µM (inactive) and the GI50 (PC-3) was 15.5 µM (inactive). For the same compound, the GI50 (IGROV-1) was 21.7 µM (inactive), the GI50 (SNB-19) was 18 µM (inactive) and the GI50 (OVCAR-4) was 13.5 µM (inactive). The GI50 (SK-MEL-28) was 18 µM (inactive), the GI50 (NCI-H460) was 17.4 µM (inactive) and the GI50 (UACC-257) was 4.65 µM (inactive). The GI50 (CAKI-1) was 15.7 µM (inactive), the GI50 (HCT-15) was 17.7 µM and the GI50 (U-251) was 19.5 µM (inactive). For the same compound, the GI50 (ACHN) was 20.2 µM (inactive), the GI50 (SK-OV-3) was 17.4 µM (inactive) and the GI50 (NCI/ADR-RES) was 16.4 µM (inactive).
